From patent US6503492B2, “Antiperspirant or deodorant compositions” (priority 2001, dated 2003)
Several values for one entry are separate records, joined by “and”; a condition that tells them apart may be missing. Equal entries are not always repeated.

Experiments:
histamine-induced itch [1] = test: Histamine-induced itch, test material topically applied in ethanol:Vaseline Intensive Care Lotion; type: in vivo, human; details: for Anti-pruritic action (in words): comparison N-acyl ethanolamides in ethanol:VICL lotion; for Itch score % of control: comparison N-acyl ethanolamides, 50 mM in ethanol, in ethanol:VICL lotion, versus vehicle alone of the same run
Protocol: This mixture was applied (250 μl/5 cm^2-5 times at 1 h intervals) and histamine iontophoresis was performed on the treated site in the method described in Example 2. The vehicle control was ethanol:VICL (volume ratio 1:1).
Related molecules stearylethanolamine (SEA; 50 mM in ethanol) and linoleoylethanolamine (LAMEA; 50 mM in ethanol) were tested as potential activating agents for a CBR, employing the test method described in Example 3 and applied in the ethanol:VICL lotion.

histamine-induced itch [2] = test: Histamine-induced itch, test material topically applied in Aqueous Cream BP (histamine iontophoresis, VAS); details: for Itch score % of control: versus vehicle alone; for Itch score (area under the curve): VAS area 0 to 5 min
[3] = test system: antiperspirant-induced irritation; test: Antiperspirant-induced irritation in vivo, 47 h Finn chamber patch test, erythema grading; parameters: species or system human
Protocol: In this Example, patch tests were performed on a mixed panel of 49 volunteers with age ranges between 18 and 55, using a double-blind protocol with randomized patch sites. Samples (20 mg) were applied to a filter paper that was placed within a Finn chamber (0.8 cm internal diameter). The chambers were then attached to the volar forearm using Scanpore™ tape (Norgesplater, Nor.) and left for 47 h. At the end of the 47 h period, the patches were removed and the site was left open for 5 h when the erythema associated with the patch was visually assessed and scored using an in-house standard assessment Patch Grading Scale as set out below.

[4] = test system: skin organotypic cultures (Epiderm™); test: Skin organotypic culture: antiperspirant (APF1)-induced IL-6 release, ELISA; details: for IL-6 pg/ml ± SD: APF1 topically, 24h
histamine-induced itch [5] = test: Histamine-induced itch, test material applied under water-impermeable patch for 24 hours; details: PEA 100 mM under patch
[6] = AEA 5% (w/v) in Aqueous Cream BP

With CCCCC/C=C\C/C=C\CCCCCCCC(=O)NCCO [LAMEA, linoleoylethanolamine] the “Anti-pruritic action (in words)” value (histamine-induced itch [1]) was “unable to demonstrate any anti-pruritic action or even appeared to exacerbate the itch response” and the “Itch score % of control” value (histamine-induced itch [1]) was 169 % of control and 108 % of control and 100 % of control.

With CCCCCCCCCCCCCCCCCC(=O)NCCO [SEA, stearylethanolamine] the “Anti-pruritic action (in words)” value (histamine-induced itch [1]) was “unable to demonstrate any anti-pruritic action or even appeared to exacerbate the itch response” and the “Itch score % of control” value (histamine-induced itch [1]) was 231 % of control and 260 % of control and 190 % of control.

For CCCCCCC(C)(C)c1cc(O)c2c(c1)OC(C)(C)[C@@H]1CC=C(CO)C[C@@H]21 [HU-210, (6aR)-trans-3-(1,1-Dimethylheptyl)-6a,7,10,10a-tetrahydro-1-hydroxy-6,6-dimethyl-6H-dibenzo[b,d]pyran-9-methanol], the “Itch score % of control” value (histamine-induced itch [2]; HU-210 0.05% (w/v) in Aqueous Cream BP) was 7.3 % of control, the “Itch score (area under the curve)” value (histamine-induced itch [2]; HU-210 0.05% (w/v) in Aqueous Cream BP, volar forearm, after 4 hours) was 101 and the “Itch score % of control” value (histamine-induced itch [2]; HU-210 0.5% (w/v) in Aqueous Cream BP) was 6.2 % of control. The “Itch score (area under the curve)” value (histamine-induced itch [2]; HU-210 0.5% (w/v) in Aqueous Cream BP, volar forearm, after 4 hours) was 119 and the “Effect on histamine-induced itch (in words)” value (“Effect” below) (histamine-induced itch [2]; HU-210 topically applied in Aqueous Cream BP) was “capable of reducing histamine-induced itch”.

In the case of CCCCC/C=C\C/C=C\C/C=C\C/C=C\CCCC(=O)NCCO [AEA, (all Z)-N-(2-Hydroxyethyl)-5,8,11,14-eicosatetraenamide], the “Itch score (area under the curve)” value (histamine-induced itch [2]; [6]) is reported as 1322, the “Itch score % of control” value (histamine-induced itch [2]; [6]) is reported as 76 % of control and the “Effect” value (histamine-induced itch [2]; anandamide topically applied) is reported as “inhibitor of histamine-induced itch”.

CCCCCCCCCCCCCCCC(=O)NCCO [PEA, Palmitoylethanolamide] was tested, and the “Effect” value (histamine-induced itch [1]; PEA topically applied in the presence of a lotion) was “can inhibit histamine-induced itch”, the “Irritation induced by APF1 (in words)” value ([3]; 0.25% palmitoylethanolamide in APF1, Wilcoxon signed rank test, significance level 5%) was “reduced significantly” and the “Mean Irritation Score” value ([3]; APF1 with 0.25% PEA, 20 mg in Finn chamber 47 h, scored 5 h after removal, Patch Grading Scale 0-4, 49 volunteers) was 0.54. For the same compound, the “IL-6 pg/ml ± SD” value ([4]; PEA 0.1 μM in the medium) was 38.3 ± 7.6 pg/mL, the “IL-6 pg/ml ± SD” value ([4]; PEA 1.0 μM in the medium) was 36.5 ± 11.6 pg/mL and the “IL-6 pg/ml ± SD” value ([4]; PEA 10.0 μM in the medium) was 59.5 ± 13.8 pg/mL. The “IL-6 pg/ml ± SD” value ([4]; PEA 100.0 μM in the medium) was 43.0 ± 7.9 pg/mL, the “IL-6 pg/ml ± SD” value ([4]; PEA 1000.0 μM in the medium) was 63.0 ± 24.8 pg/mL and the “AP-induced IL-6 release (in words)” value ([4]; PEA at all concentrations used, Dunnet's test p<0.05) was “significantly decrease AP-induced IL-6 release”. The “Effect” value (histamine-induced itch [5]) was “can inhibit histamine-induced itch”.
